Test results from patent US9060512B2, “Biocide compositions (III)” (Cognis IP Management GmbH, priority 2009, dated 2015).

Key:
[1] = system: Hemp sesbania (Sesbania exaltata=Bayer Code=SEBEX); assay: Weed control with glyphosate IPA salt, optionally with adjuvant; assay type: in vivo
Experimental: (§1) Two weeds, Velvet leaf (Abutilion theophrasti=Bayer Code: ABUTH) and Hemp sesbania (Sesbania exaltata=Bayer Code=SEBEX) were treated with a suboptimum rate of 270 g a.e./ha glyphosate IPA salt, optionally in the presence of N,N-Dimethyl levulinic acid amide as an adjuvant (spray volume: 200 l/ha) with three replications over a period of 21 days. Assessments took place for SEBEX after 10 and for ABUTH 20 days after treatment. The efficacy of the biocide/adjuvant composition was determined against a control where the number of weeds in a similar untreated area was set to 0%.

[2] = system: Velvet leaf (Abutilion theophrasti=Bayer Code: ABUTH); assay: as above; assay type: in vivo; details: 270 g/ha glyphosate IPA salt, spray volume 200 l/ha, 20 days after treatment, untreated area = 0%
Experimental: as §1

Structure (SMILES)	SEBEX Control (weed control) ([1]; 270 g/ha glyphosate IPA salt, spray volume 200 l/ha, 10 days after treatment, untreated area = 0%) [%-rel.]	ABUTH Control (weed control) [2] [%-rel.]	weed control performance of glyphosate on addition of adjuvant ([1]; summary in words, SEBEX and ABUTH)
CC(C)N.O=C(O)CNCP(=O)(O)O [C3, glyphosate IPA salt]	50	82	
CC(=O)CCC(=O)N(C)C [Example 6, Levulinic acid dimethylamide]			improves the weed control performance of glyphosate significantly
